Legend:
Format in all cases: in vivo
[1] = tested on: barnyardgrass (Echinochloa crus-galli); experiment: Test A pre-/postemergence: barnyardgrass; conditions: for Barnyardgrass plant response rating: Postemergence; for Plant response rating, Barnyardgrass: Preemergence
Method in brief: (§1)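 Soil medium was loam blended with sand; treatments pre- and postemergence were applied concurrently, postemergence at one- to two-leaf stage. Approximately ten days in greenhouse preceded visual comparison with untreated controls, scored 0 (no effect) to 100 (complete control).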

[2] = tested on: crabgrass, large (large crabgrass, Digitaria sanguinalis); experiment: Test A pre-/postemergence: crabgrass, large; conditions: for Crabgrass, Large plant response rating: Postemergence; for Plant response rating, Crabgrass, Large: Preemergence
Method in brief: as §1

[3] = tested on: pigweed (Amaranthus retroflexus); experiment: Test A pre-/postemergence: pigweed; conditions: for Pigweed plant response rating: Postemergence; for Plant response rating, Pigweed: Preemergence
Method in brief: as §1

[4] = tested on: wheat (Triticum aestivum); experiment: Test A pre-/postemergence: wheat; conditions: for Wheat plant response rating: Postemergence; for Plant response rating, Wheat: Preemergence
Method in brief: as §1

[5] = tested on: blackgrass (Alopecurus myosuroides); experiment: Test C pre-/postemergence: blackgrass
Method in brief: (§2)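 Visual injury scored 0–100 (100 = complete control) against untreated controls after 13–15 greenhouse days. Surfactant-containing solvent formulations applied either to soil after sowing (loam/sand) or over 1- to 4-leaf plants, 2–18 cm tall.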

corn (Zea mays) = experiment: Test C pre-/postemergence: corn
Method in brief: as §2

[6] = tested on: large crabgrass (Digitaria sanguinalis); experiment: Test C pre-/postemergence: large crabgrass
Method in brief: as §2

[7] = tested on: foxtail, giant (giant foxtail, Setaria faberii); experiment: Test C pre-/postemergence: foxtail, giant
Method in brief: as §2

[8] = tested on: lambsquarters (Chenopodium album); experiment: Test C pre-/postemergence: lambsquarters
Method in brief: as §2

[9] = tested on: morningglory (Ipomoea coccinea); experiment: Test C pre-/postemergence: morningglory
Method in brief: as §2

[10] = tested on: nutsedge, yellow (yellow nutsedge, Cyperus esculentus); experiment: Test C pre-/postemergence: nutsedge, yellow
Method in brief: as §2

[11] = 125 g ai/ha, 0 to 100 scale, 0 is no effect, 100 is complete control
[12] = 500 g ai/ha, visual rating on 0 to 100 scale (0 no effect, 100 complete control), approximately ten days
[13] = 125 g ai/ha, 0 to 100 scale where 0 is no effect and 100 is complete control
[14] = 500 g ai/ha, 0 to 100 scale (0 no effect, 100 complete control)
[15] = Postemergence, 31 g ai/ha, scale 0 to 100 (0 no effect, 100 complete control)
[16] = Postemergence, 62 g ai/ha, scale 0 to 100 (0 no effect, 100 complete control)
[17] = Postemergence, 125 g ai/ha, scale 0 to 100, 0 no effect, 100 complete control
[18] = Postemergence, 250 g ai/ha, scale 0 to 100
[19] = Preemergence, 31 g ai/ha, scale of 0 to 100, 0 is no effect, 100 is complete control
[20] = Preemergence, 62 g ai/ha, scale 0 to 100, 0 no effect, 100 complete control
[21] = Preemergence, 125 g ai/ha, scale 0 to 100, 0 no effect, 100 complete control
[22] = Preemergence, 250 g ai/ha, scale 0 to 100, 0 no effect, 100 complete control
[23] = Preemergence, 62 g ai/ha, scale of 0 to 100, 0 is no effect, 100 is complete control

Which “Barnyardgrass plant response rating” value [1, 11] does the source give for `Cc1nn(-c2ccc(C(F)(F)F)cc2)nc1Oc1ccnc(C(F)(F)F)c1` [Compound 120] here?
Its value is 60.

And the “Barnyardgrass plant response rating” value [1, 12]?
The value was 80.

What about the “Plant response rating, Barnyardgrass” value [1, 13] of the same compound?
The value was 90.

And the “Plant response rating, Barnyardgrass” value [1, 14]?
The value was 100.

What about the “Crabgrass, Large plant response rating” value [2, 11] of the same compound?
Its value is 80.

What about the “Crabgrass, Large plant response rating” value [2, 12] of the same compound?
Its value is 90.

What about the “Plant response rating, Crabgrass, Large” value [2, 13] of the same compound?
Its value is 100.

And the “Plant response rating, Crabgrass, Large” value [2, 14]?
The value was 100.

And the “Pigweed plant response rating” value [3, 11]?
Its value is 90.

What about the “Pigweed plant response rating” value [3, 12] of the same compound?
Its value is 100.

What about the “Plant response rating, Pigweed” value [3, 13] of the same compound?
Its value is 100.

What about the “Plant response rating, Pigweed” value [3, 14] of the same compound?
The value was 100.

What about the “Wheat plant response rating” value [4, 11] of the same compound?
Its value is 10.

What about the “Wheat plant response rating” value [4, 12] of the same compound?
The value was 30.

And the “Plant response rating, Wheat” value [4, 13]?
Its value is 10.

And the “Plant response rating, Wheat” value [4, 14]?
The value was 20.

And the “Plant response rating, Blackgrass” value [5, 15]?
The value was 25.

What about the “Plant response rating, Blackgrass” value [5, 16] of the same compound?
The value was 30.

What about the “Plant response rating, Blackgrass” value [5, 17] of the same compound?
The value was 60.

And the “Plant response rating, Blackgrass” value [5, 18]?
The value was 85.

What about the “Plant response rating, Blackgrass” value [5, 19] of the same compound?
The value was 90.

And the “Plant response rating, Blackgrass” value [5, 20]?
The value was 90.

And the “Plant response rating, Blackgrass” value [5, 21]?
Its value is 90.

And the “Plant response rating, Blackgrass” value [5, 22]?
Its value is 90.

And the “Plant response rating, Corn” value (corn (Zea mays); [15])?
Its value is 5.

And the “Plant response rating, Corn” value (corn (Zea mays); [16])?
The value was 10.

What about the “Plant response rating, Corn” value (corn (Zea mays); [17]) of the same compound?
The value was 10.

What about the “Plant response rating, Corn” value (corn (Zea mays); [18]) of the same compound?
The value was 10.

What about the “Plant response rating, Corn” value (corn (Zea mays); [19]) of the same compound?
The value was 0.

And the “Plant response rating, Corn” value (corn (Zea mays); [20])?
Its value is 5.

And the “Plant response rating, Corn” value (corn (Zea mays); [21])?
The value was 25.

What about the “Plant response rating, Corn” value (corn (Zea mays); [22]) of the same compound?
Its value is 50.

And the “Plant response rating, Crabgrass, Large” value [6, 15]?
Its value is 5.

What about the “Plant response rating, Crabgrass, Large” value [6, 16] of the same compound?
The value was 25.

And the “Plant response rating, Crabgrass, Large” value [6, 17]?
The value was 25.

What about the “Plant response rating, Crabgrass, Large” value [6, 18] of the same compound?
Its value is 45.

What about the “Plant response rating, Crabgrass, Large” value [6, 19] of the same compound?
The value was 100.

What about the “Plant response rating, Crabgrass, Large” value [6, 23] of the same compound?
Its value is 100.

What about the “Plant response rating, Crabgrass, Large” value [6, 21] of the same compound?
Its value is 100.

What about the “Plant response rating, Crabgrass, Large” value [6, 22] of the same compound?
Its value is 100.

And the “Plant response rating, Foxtail, Giant” value [7, 15]?
The value was 5.

What about the “Plant response rating, Foxtail, Giant” value [7, 16] of the same compound?
Its value is 45.

What about the “Plant response rating, Foxtail, Giant” value [7, 17] of the same compound?
Its value is 50.

And the “Plant response rating, Foxtail, Giant” value [7, 18]?
The value was 55.

What about the “Plant response rating, Foxtail, Giant” value [7, 19] of the same compound?
The value was 98.

And the “Plant response rating, Foxtail, Giant” value [7, 23]?
The value was 98.

And the “Plant response rating, Foxtail, Giant” value [7, 21]?
The value was 98.

And the “Plant response rating, Foxtail, Giant” value [7, 22]?
Its value is 100.

And the “Plant response rating, Lambsquarters” value [8, 15]?
The value was 100.

What about the “Plant response rating, Lambsquarters” value [8, 16] of the same compound?
The value was 100.

What about the “Plant response rating, Lambsquarters” value [8, 17] of the same compound?
The value was 100.

And the “Plant response rating, Lambsquarters” value [8, 18]?
The value was 100.

And the “Plant response rating, Lambsquarters” value [8, 19]?
Its value is 85.

And the “Plant response rating, Lambsquarters” value [8, 23]?
The value was 100.

And the “Plant response rating, Lambsquarters” value [8, 21]?
Its value is 100.

What about the “Plant response rating, Lambsquarters” value [8, 22] of the same compound?
The value was 100.

And the “Plant response rating, Morningglory” value [9, 15]?
The value was 60.

And the “Plant response rating, Morningglory” value [9, 16]?
Its value is 60.

What about the “Plant response rating, Morningglory” value [9, 17] of the same compound?
Its value is 65.

What about the “Plant response rating, Morningglory” value [9, 18] of the same compound?
Its value is 98.

What about the “Plant response rating, Morningglory” value [9, 19] of the same compound?
Its value is 45.

What about the “Plant response rating, Morningglory” value [9, 23] of the same compound?
Its value is 45.

And the “Plant response rating, Morningglory” value [9, 21]?
Its value is 45.

And the “Plant response rating, Morningglory” value [9, 22]?
Its value is 90.

What about the “Plant response rating, Nutsedge, Yellow” value [10, 15] of the same compound?
Its value is 0.

What about the “Plant response rating, Nutsedge, Yellow” value [10, 16] of the same compound?
The value was 0.

What about the “Plant response rating, Nutsedge, Yellow” value [10, 17] of the same compound?
Its value is 0.

What about the “Plant response rating, Nutsedge, Yellow” value [10, 18] of the same compound?
The value was 0.

And the “Plant response rating, Nutsedge, Yellow” value [10, 19]?
Its value is 0.

And the “Plant response rating, Nutsedge, Yellow” value [10, 23]?
The value was 0.

And the “Plant response rating, Nutsedge, Yellow” value [10, 21]?
Its value is 0.

What about the “Plant response rating, Nutsedge, Yellow” value [10, 22] of the same compound?
The value was 0.
